The text below walks through data of patent US20160045503A1, “FORMULATIONS CONTAINING REVERSIBLE COVALENT COMPOUNDS” (PRINCIPIA BIOPHARMA INC., priority 2012, published 2016).

The target of one data set is human recombinant Btk (Homo sapiens, UniProt Q06187). Put plainly: Btk Enzymatic Activity Assay (Caliper-based kinase assay). It counts as biochemical. Conditions: human recombinant Btk 2 nM, ATP 40 uM, peptide substrate 1 uM, room temperature, 3 h.
Another data set deals with protein target. Put plainly: Reversibility of Binding (compound in solution before and after denaturation or digestion of the target, HPLC-MS/MS). The note with it: for Compound in solution in the denatured or digested state?: after denaturation with 5 M guanidine hydrochloride and digestion with trypsin; for compound in solution following perturbation of the target: perturbed state; for Compound in solution in the native state?: target in excess over compound. The method, then:
The following approach was developed to differentiate compounds that form irreversible bonds with their targets, such as acrylamide compounds, from compound that bind reversibly. […] The reactions were then treated with perturbations including both denaturation with 5 M guanidine hydrochloride and digestion with trypsin, disrupting proper folding of the target. […] The concentration of compound in solution was assessed both preceding and following perturbation using high performance liquid chromatography (HPLC) coupled to tandem mass spectrometry.

A short description of data set [1]: Determination of Bioavailability, stomach (oral gavage) v. intraduodenal administration. Conditions: rat; for % increase: ID versus PO; for AUC / Cmax / bioavailability: plasma. It counts as in vivo, Rats. How it is done: Rats with surgically implanted intra-duodenal catheters were obtained commercially. Rats were dosed with solution or suspension of (S)-2-(2-((4-amino-3-(2-fluoro-4-phenoxyphenyl)-1H-pyrazolo[3,4-d]pyrimidin-1-yl)methyl)pyrrolidine-1-carbonyl)-4-methyl-4-morpholinopent-2-enenitrile; via bolus injection: oral gavage was done to measure exposure after oral dosing, or dosing via administration through the intra-duodenal catheter to measure exposure bypassing the stomach. […] Blood was withdrawn at time points out to 24 hours and compound quantitated via LC/MS/MS to obtain plasma concentrations. PK parameters were calculated via commercially available software and measures of exposure were used to assess differences in dosing routes. The table below summarizes exposures as measured by area under the curve (AUC), concentration at its maximum (Cmax), and bioavailability.

Where [2] appears, read: 20 mg/kg, ID (intra-duodenal), 20 mg/kg in 15% cyclodextrin, Experiment 1.
The mark [3] stands for this setting: 20 mg/kg, ID (intra-duodenal), 20 mg/kg in 15% cyclodextrin, Experiment 2.
Where [4] appears, read: 100 mg/kg, ID 100 mg/kg, 0.5% xanthum gum suspension.
Where [5] appears, read: po, 20 mg/kg, 20 mg/kg in 15% cyclodextrin, Experiment 1.
[6] abbreviates: po, 20 mg/kg, 20 mg/kg in 15% cyclodextrin, Experiment 2.
[7] abbreviates: po, 100 mg/kg, PO 100 mg/kg, 0.5% xanthum gum suspension.

Chain of human recombinant Btk (Q06187 whole entry): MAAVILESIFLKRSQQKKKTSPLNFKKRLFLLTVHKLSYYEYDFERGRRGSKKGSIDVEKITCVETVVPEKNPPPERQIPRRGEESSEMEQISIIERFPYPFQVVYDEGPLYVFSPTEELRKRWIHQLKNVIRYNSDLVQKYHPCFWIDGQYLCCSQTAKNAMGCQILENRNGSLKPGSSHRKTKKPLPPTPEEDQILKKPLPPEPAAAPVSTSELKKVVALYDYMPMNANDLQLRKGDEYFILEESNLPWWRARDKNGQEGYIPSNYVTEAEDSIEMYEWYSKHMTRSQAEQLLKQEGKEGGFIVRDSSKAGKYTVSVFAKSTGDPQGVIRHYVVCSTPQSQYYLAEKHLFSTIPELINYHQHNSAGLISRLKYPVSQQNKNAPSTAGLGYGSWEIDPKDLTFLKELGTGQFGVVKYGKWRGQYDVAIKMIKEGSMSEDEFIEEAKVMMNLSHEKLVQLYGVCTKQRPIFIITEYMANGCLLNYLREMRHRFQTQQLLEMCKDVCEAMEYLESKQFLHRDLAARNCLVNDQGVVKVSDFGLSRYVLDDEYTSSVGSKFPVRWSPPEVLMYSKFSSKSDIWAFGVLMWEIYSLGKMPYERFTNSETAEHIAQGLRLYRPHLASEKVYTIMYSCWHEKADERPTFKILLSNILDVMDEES
Procedure for human recombinant Btk: A Caliper-based kinase assay (Caliper Life Sciences, Hopkinton, Mass.) was used to measure inhibition of Btk kinase activity of a compound of Formula (I). […] The reaction was then terminated with EDTA, final concentration 20 mM and the phosphorylated reaction product was quantified on a Caliper Desktop Profiler (Caliper LabChip 3000). […] This value is presented as the IC50.

A word on the IC50: it is the midpoint of a concentration-inhibition curve. With `N#CC(=CC1CC1)C(=O)N1CCCC1Cn1nc(-c2ccc(Oc3ccccc3)cc2)c2c(N)ncnc21` (stereo not shown) [Cpd 2, 2-(2-((4-amino-3-(4-phenoxyphenyl)-1H-pyrazolo[3,4-d]pyrimidin-1-yl)methyl)pyrrolidine-1-carbonyl)-3-cyclopropylacrylonitrile], at human recombinant Btk, the IC50 amounted to 3.7 nM.
Still for that read-out and setting: under `COc1cc(-c2nn(CC3CCCN3C(=O)C(C#N)=CC3CC3)c3ncnc(N)c23)ccc1Oc1ccc(Cl)c(Cl)c1` (stereo not shown) [Cpd 5] stands 1 nM; under `CC(C)(C)C=C(C#N)C(=O)N1CCC(n2nc(-c3ccc(Oc4ccccc4)cc3)c3c(N)ncnc32)CC1` [Cpd 8, 2-(4-(4-amino-3-(4-phenoxyphenyl)-1H-pyrazolo[3,4-d]pyrimidin-1-yl)piperidine-1-carbonyl)-4,4-dimethylpent-2-enenitrile], 130 nM; under `CC(C)(C)C=C(C#N)C(=O)N1CCCC1Cn1nc(-c2ccc(Oc3ccccc3)cc2)c2c(N)ncnc21` (stereo not shown) [Cpd 10, 2-(2-((4-amino-3-(4-phenoxyphenyl)-1H-pyrazolo[3,4-d]pyrimidin-1-yl)methyl)pyrrolidine-1-carbonyl)-4,4-dimethylpent-2-enenitrile], 5.4 nM.
With `N#CC(=CC1CC1)C(=O)N1CCC[C@@H]1Cn1nc(-c2ccc(Oc3ccccc3)cc2F)c2c(N)ncnc21` [Cpd 27A, (R)-2-(2-((4-amino-3-(2-fluoro-4-phenoxyphenyl)-1H-pyrazolo[3,4-d]pyrimidin-1-yl)methyl)pyrrolidine-1-carbonyl)-3-cyclopropylacrylonitrile], in the data set with protein target, the “Compound in solution in the denatured or digested state?” value is reported as “yes” and the “compound in solution following perturbation of the target” value is on record as “returned to solution”. In addition, in the data set with protein target (before perturbation), the “Compound in solution in the native state?” value was “no”.
`N#CC(=CC1CC1)C(=O)N1CCC[C@H]1Cn1nc(-c2ccc(Oc3c(F)cccc3F)cc2F)c2c(N)ncnc21` [Cpd 44B, (S)-2-(2-((4-amino-3-(2-fluoro-4-(2,6-difluorophenoxy)phenyl)-1H-pyrazolo[3,4-d]pyrimidin-1-yl)methyl)pyrrolidine-1-carbonyl)-3-cyclopropylacylonitrile]: at human recombinant Btk, the half-maximal inhibitory concentration (IC50) amounted to 3 nM.
On to `CNC(C)(C)C=C(C#N)C(=O)N1CCC[C@@H]1Cn1nc(C2(Oc3ccccc3)C=CC=CC2F)c2c(N)ncnc21` (stereo partly drawn) [Cpd 83A, (R)-2-(2-((4-amino-3-(2-fluoro-1-phenoxyphenyl)-1H-pyrazolo[3,4-d]pyrimidin-1-yl)methyl)pyrrolidine-1-carbonyl)-4-methyl-4-(methylamino)pent-2-enenitrile], for which the IC50 at human recombinant Btk is 1.4 nM.
For `N#CC(=CC1(N)CC1)C(=O)N1CCC[C@@H]1Cn1nc(-c2ccc(Oc3ccccc3)cc2F)c2c(N)ncnc21` [Cpd 90A, (R)-2-(2-((4-amino-3-(2-fluoro-4-phenoxyphenyl)-1H-pyrazolo[3,4-d]pyrimidin-1-yl)methyl)pyrrolidine-1-carbonyl)-3-(1-aminocyclopropyl)acrylonitrile], the IC50 on human recombinant Btk was found to be 52 nM.
For orientation: AUC means concentration integrated over time. For orientation: Cmax means the highest concentration seen after dosing. As usually defined, the bioavailability is the share of a dose that reaches the circulation, judged against a reference dose that is usually intravenous. A high value points to much systemic uptake. With `CC(C)(C=C(C#N)C(=O)N1CCC[C@H]1Cn1nc(-c2ccc(Oc3ccccc3)cc2F)c2c(N)ncnc21)N1CCOCC1` [Cpd 95B, (S)-2-(2-((4-amino-3-(2-fluoro-4-phenoxyphenyl)-1H-pyrazolo[3,4-d]pyrimidin-1-yl)methyl)pyrrolidine-1-carbonyl)-4-methyl-4-morpholinopent-2-enenitrile], the “% increase” value in data set [1] (20 mg/kg in 15% cyclodextrin, Experiment 1) is 409%; in data set [1] (20 mg/kg in 15% cyclodextrin, Experiment 2), 232%; in data set [1] (100 mg/kg, 0.5% xanthum gum suspension), 220%. Further, the AUC in data set [1] (setting [2]) came out at 630 ng·h/mL; in data set [1] (setting [3]) it was 1500 ng·h/mL; in data set [1] (setting [4]), 1900 ng·h/mL; in data set [1] (setting [5]) it was 154 ng·h/mL; in data set [1] (setting [6]) it was 647 ng·h/mL; in data set [1] (setting [7]) it was 858 ng·h/mL. For the same molecule, the Cmax came to 1400 ng/mL in data set [1] (setting [2]); 1650 ng/mL in data set [1] (setting [3]); 870 ng/mL in data set [1] (setting [4]); 145 ng/mL in data set [1] (setting [5]); 406 ng/mL in data set [1] (setting [6]); 149 ng/mL in data set [1] (setting [7]). Further, the bioavailability in data set [1] (setting [2]) was 27%; in data set [1] (setting [3]) it was 64.6%; in data set [1] (setting [4]), 16.3%; in data set [1] (setting [5]), 6.6%; in data set [1] (setting [6]) it was 27.8%; in data set [1] (setting [7]), 7.4%.
Consider `CC(C)C=C(C#N)C(=O)N1CCC[C@H]1Cn1nc(-c2ccc(Oc3cccc(F)c3F)cc2F)c2c(N)ncnc21` [Cpd 102B, (S)-2-(2-((4-amino-3-(4-(2,3-difluorophenoxy)-2-fluorophenyl)-1H-pyrazolo[3,4-d]pyrimidin-1-yl)methyl)pyrrolidine-1-carbonyl)-4-methylpent-2-enenitrile], for which the IC50 at human recombinant Btk is 6 nM.
Same read-out and setting: in the case of `CNC(C)(C)C=C(C#N)C(=O)N1CCC[C@H]1Cn1nc(-c2ccc(Oc3cccc(F)c3F)cc2F)c2c(N)ncnc21` [Cpd 105B] it was 25.5 nM; in that of `CC(C)(C)C=C(C#N)C(=O)N1CCC[C@H]1Cn1cc(-c2ccc(Oc3cccc(F)c3F)cc2)c2c(N)ncnc21` [Cpd 173B, (S)-2-(2-((4-amino-5-(4-(2,3-difluorophenoxy)phenyl)-7H-pyrrolo[2,3-d]pyrimidin-7-yl)methyl)pyrrolidine-1-carbonyl)-4,4-dimethylpent-2-enenitrile], 34 nM; in that of `C[C@@H](Cn1nc(-c2ccc(Oc3ccccc3)cc2F)c2c(N)ncnc21)NC(=O)C(C#N)=CC(C)(C)N` [Cpd 195, (S)-4-amino-N-(1-(4-amino-3-(2-fluoro-4-phenoxyphenyl)-1H-pyrazolo[3,4-d]-pyrimidin-1-yl)propan-2-yl)-2-cyano-4-methylpent-2-enamide], 6 nM.
`C=CC(=O)N1CCC[C@@H](n2nc(-c3ccc(Oc4ccccc4)cc3)c3c(N)ncnc32)C1` [reference compound]: in the data set on protein target, the “Compound in solution in the denatured or digested state?” value was “no” and the “compound in solution following perturbation of the target” value is “depleted from solution”. In the data set on protein target (before perturbation), the “depletion of compound from solution in the native (folded) state” value was “depleted from solution” and the “Compound in solution in the native state?” value is given as “no”.
Consider “(S)-4-amino-2-(2-((4-amino-3-(4-(2,3-difluorophenoxy)-2-fluorophenyl)-1H-pyrazolo[3,4-d]pyrimidin-1-yl)methyl)pyrimidine-1-carbonyl)-4-methylpent-2-enenitrile [Cpd 104B]”, for which the IC50 at human recombinant Btk amounted to 20 nM.
